Measured values published in US10039772B2, “Methods and compositions for treating alcohol use disorders” (priority 2015, dated 2018).
Entries after “also recorded” stand apart in the source; their conditions may differ.

Legend:
dependent rats = conditions: systemic glucocorticoid receptor antagonism; cited from earlier work
Pannexin 1 = Pannexin 1 (Homo sapiens, UniProt Q96RD7); conditions: cited from earlier work
C57BL/6J mice = test: Mouse drinking in the dark (DID) binge-like drinking; format: in vivo; conditions: for time course of the effect on ethanol intake within the DID session: first 2 h vs whole 4 h session; for ethanol intake in the DID paradigm: mice, 4 h drinking session, vs saline vehicle
Description: The DID paradigm capitalizes on the circadian rhythm in drinking of mice utilizing a discrete time of exposure to ethanol to obtain pharmacologically significant ethanol drinking in a four-day procedure (114, 115). It is considered a preclinical model of binge alcohol drinking (116). Blood ethanol levels of C57BL/6J mice in DID are reliably over 100 mg % following the final drinking bout and produce behavioral intoxication in C57BL/6J mice (115). In the DID paradigm, the water bottle is replaced with a bottle containing 20% ethanol for 2 hours in the home cage 3 hours after lights go off. The design involves 3 daily drinking sessions of 2 hours and a fourth of 4 hours (114, 115).

[1] = test system: inflammasome activation in neurons and astrocytes; conditions: cited from earlier work
[2] = test system: alcohol dependent and nondependent Wistar rats; test: Rat operant self-administration of alcohol (dependent and nondependent rats); format: in vivo; conditions: for operant alcohol self-administration (lever press responding for alcohol): both dependent and nondependent rats, alcohol 10% w/v
Description: Self-administration sessions were conducted in standard operant conditioning chambers (Med Associates). The rats were trained to self-administer alcohol as previously reported (13). First, the rats were given free-choice access to alcohol (10% w/v) and water for 1 day in their home cages to habituate them to the taste of alcohol. Second, the rats were subjected to an overnight session in the operant chambers with access to one lever (right lever) that delivered water in a fixed-ratio 1 (FR1) schedule where every lever press is reinforced with delivery of 0.1 ml of solution. Food was available ad libitum during this training. Third, after 1 day off, the rats were subjected to a 2 hour session (FR1) for 1 day and a 1 hour session (FR1) the next day, with one lever delivering alcohol (right lever). All of the subsequent sessions lasted 30 min, and two levers were available (left lever: water; right lever: alcohol) until stable levels of intake were reached. Upon completion of this procedure, the animals were allowed to self-administer a 10% (w/v) alcohol solution and water on an FR1 schedule of reinforcement.
The rats were made dependent by chronic, intermittent exposure to alcohol vapors as previously described (13).
Effect of carbenoxolone (CBX) on alcohol drinking in rats and mice.

Wistar rats = conditions: saccharin 0.004%; 0 and 40 mg/kg IP 90 min prior; 30 min session, FR1; listed as carbenoxolone
[3] = test system: dependent and non-dependent C57BL/6J mice; test: Mouse limited access 2-bottle choice with chronic intermittent ethanol exposure (CIE); format: in vivo; conditions: for ethanol intake in non-dependent and dependent mice (CIE paradigm): limited access 2-bottle choice, acute IP
Description: Exposure of mice to repeated cycles of intermittent ethanol vapor in order to induce dependence increases ethanol drinking following withdrawal in a 2-bottle choice paradigm (112, 113). Thus, the CIE paradigm is used to test the effects of a drug on dependent and nondependent drinking in mice. Briefly, C57BL/6J mutant and WT mice had access to two bottles, one containing water and the other containing 15% (w/v) ethanol, for 2 hours starting 3 hours into the dark phase. Following acquisition of stable alcohol intake, half of the mice were subjected to repeated bouts of ethanol vapor exposure consisting of 16 hours per day for 4 days. Before each exposure to ethanol vapor, mice were IP injected with a solution of 20% v/v ethanol and 68.1 mg/kg pyrazole and immediately placed into ethanol vapor chambers (La Jolla Ethanol Research, CA). Tail blood sampling for blood ethanol level (BAL) determination was carried out daily. Target BALs were 150-200 mg %. Seventy-two hours following removal from the chambers, mice received access to water vs. 20% ethanol for 2 hours, and again over the next 4 days. The following week, mice were re-exposed to the ethanol vapor/control conditions and again tested for t2-bottle choice drinking for 5 days. Three vapor bouts followed by 2-bottle choice were carried out. Mice were weighed every 4-6 days throughout the 2-bottle choice sessions and daily during the vapor exposure bouts. Food and water were available ad libitum and mice were group housed except during the ethanol drinking sessions.

[4] = in vivo; cited from earlier work

Chain of Pannexin 1 (Q96RD7 whole entry, species assumed): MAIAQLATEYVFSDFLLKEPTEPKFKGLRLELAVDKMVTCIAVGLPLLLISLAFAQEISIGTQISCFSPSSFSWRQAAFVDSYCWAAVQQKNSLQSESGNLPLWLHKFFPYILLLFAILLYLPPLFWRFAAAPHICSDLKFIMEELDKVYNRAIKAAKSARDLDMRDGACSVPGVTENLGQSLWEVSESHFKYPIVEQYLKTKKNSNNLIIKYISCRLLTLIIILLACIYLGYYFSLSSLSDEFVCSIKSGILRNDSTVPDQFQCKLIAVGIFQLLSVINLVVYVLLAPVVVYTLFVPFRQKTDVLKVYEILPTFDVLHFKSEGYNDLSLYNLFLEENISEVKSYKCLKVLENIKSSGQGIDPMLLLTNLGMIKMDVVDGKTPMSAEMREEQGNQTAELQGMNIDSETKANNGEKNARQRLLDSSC

CC#C[C@]1(O)CC[C@H]2[C@@H]3CCC4=CC(=O)CCC4=C3[C@@H](c3ccc(N(C)C)cc3)C[C@@]21C [mifepristone]
escalated alcohol drinking and compulsive response for alcohol (dependent rats): blocked

Nc1ncnc2c1ncn2[C@@H]1O[C@H](COP(=O)(O)OP(=O)(O)OP(=O)(O)O)[C@@H](O)[C@H]1O [ATP]
inhibition of Pannexin 1 (Pannexin 1): inhibits

CC1(C)[C@@H](OC(=O)CCC(=O)O)CC[C@]2(C)[C@H]3C(=O)C=C4[C@@H]5C[C@@](C)(C(=O)O)CC[C@]5(C)CC[C@@]4(C)[C@]3(C)CC[C@@H]12 [Number 4, 18α-glycyrrhetinic acid 3β-O-hemisuccinate]
time course of the effect on ethanol intake within the DID session (C57BL/6J mice): more pronounced in the first 2 hours | ethanol intake in the DID paradigm (C57BL/6J mice): reduce

CCCN(CCC)S(=O)(=O)c1ccc(C(=O)O)cc1 [Number 257, Probenecid]
inhibition of Pannexin 1 (Pannexin 1): inhibits | inflammasome activation in neurons and astrocytes [1]: prevents | alcohol self-administration, alcohol dependent rats ([2]; acute, systemic administration): decreases

282: mimetic peptide SSFSWRQAAFVDS [Number 282]
inhibition of Pannexin 1 (Pannexin 1): inhibited

281: mimetic peptide GHGDPLHLEEVKC [Number 281]
inhibition of Pannexin 1 (Pannexin 1): inhibited

CC1(C(=O)O)CCC2(C)CCC3(C)C(=CC(=O)C4C5(C)CCC(OC(=O)CCC(=O)O)C(C)(C)C5CCC43C)C2C1 (stereo not drawn) [Number 3, 18β-glycyrrhetinic acid 3β-O-hemisuccinate]
operant self-administration of saccharin-sweetened water (Wistar rats): did not affect | ethanol intake in non-dependent and dependent mice (CIE paradigm) ([3]; listed as CBX): reduces | ethanol intake in non-dependent and dependent mice (CIE paradigm) ([3]; listed as Carbenoxolone): reduced | ethanol intake, dependent mice ([3]; limited access (2 h) 2-bottle choice after alcohol vapor, 40 mg/kg IP): reduced | ethanol intake, non-dependent mice ([3]; limited access (2 h) 2-bottle choice, 20 and 40 mg/kg IP): reduced | time course of the effect on ethanol intake within the DID session (C57BL/6J mice): more pronounced in the first 2 hours | ethanol intake in the DID paradigm (C57BL/6J mice; listed as CBX): reduce | ethanol intake in the DID paradigm (C57BL/6J mice; listed as Carbenoxolone): reduced | crossing of the blood brain barrier (BBB) [4]: does not effectively cross | operant alcohol self-administration (lever press responding for alcohol) ([2]; 0, 20, 40 mg/kg IP 90 min prior, 30 min session, FR1, listed as CBX): decreases; also recorded: dose-dependently reduced | operant alcohol self-administration (lever press responding for alcohol) ([2]; 0, 20, 40 mg/kg IP 90 min prior, 30 min session, FR1, listed as carbenoxolone): effectively and dose-dependently reduces | water intake / water responding ([2]; dependent and nondependent rats, 0, 20, 40 mg/kg IP 90 min prior, 30 min session, FR1, listed as CBX): did not influence; also recorded: No significant effects
